Measured values published in the METLIN SMRT retention time set (Domingo-Almenara et al. 2019).

Assay: gradient 5% acetonitrile 3 min, to 50% in 2 min, to 85% in 15 min, held 3 min, 100 µL/min
Conditions: column: Zorbax Extend-C18 2.1 x 50 mm; eluents: water / acetonitrile, 0.1% formic acid
How it was run: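 Mixtures of ~100 pure standards were chromatographed on a Zorbax Extend-C18 column (2.1 × 50 mm, 1.8 μm) at 100 μL/min using water and acetonitrile, each with 0.1% formic acid. Detection used a quadrupole time-of-flight mass spectrometer in positive and negative ionization mode, and data collection spanned 3 months. Retention time was obtained from adduct peaks picked computationally and each checked manually.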

**Q.** Which RP-LC retention time does the source give for `CCOC(=O)C1CCN(C(=O)c2nc(N3CCCC3)c3c(C)cc(C)nc3n2)CC1` here?
**A.** Its RP-LC retention time is 631 s.

**Q.** Which RP-LC retention time does the source give for `Cc1ccccc1CC(=O)Nc1ccc2c(c1)Sc1ncccc1C(=O)N2C(C)C` here?
**A.** Its RP-LC retention time is 912 s.

**Q.** Which RP-LC retention time does the source give for `O=c1ccc(-c2ccccc2F)nn1Cc1nc(-c2ccc3c(c2)OCO3)no1` here?
**A.** The RP-LC retention time was 944 s.

**Q.** For `Cc1ccccc1-c1noc(C2CC(=O)N(c3ccc(Cl)cc3)C2)n1` (stereo unspecified), which RP-LC retention time is on record?
**A.** The RP-LC retention time was 1090 s.

**Q.** Which RP-LC retention time does the source give for `CNC(=O)c1cc(C(=O)c2ccc3nc(Nc4cccc(C(F)(F)F)c4)[nH]c3c2)ccn1` here?
**A.** Its RP-LC retention time is 747 s.

**Q.** For `CCn1c(=O)c2ccccc2n(Cc2nc(-c3ccc(OC)c(OC)c3)no2)c1=O`, which RP-LC retention time is on record?
**A.** Its RP-LC retention time is 920 s.

**Q.** For `CC(=O)Nc1ccc(C)cc1S(=O)(=O)N1CCC2(CC1)Nc1ccc(C)c(C)c1-n1cccc12`, which RP-LC retention time is on record?
**A.** Its RP-LC retention time is 1070 s.

**Q.** With `O=C(c1cc(Cl)ccc1F)N1CCN(c2cc(-c3cccs3)[nH]n2)CC1` as the compound, how does the RP-LC retention time read?
**A.** The RP-LC retention time was 833 s.

**Q.** Which RP-LC retention time does the source give for `Cc1nnc(NC(=O)c2cc(C3CC3)n(C3CCS(=O)(=O)C3)n2)s1` (stereo unspecified) here?
**A.** The RP-LC retention time was 646 s.

**Q.** With `CCc1cc2c(N3CCCC(C(=O)N(C)C)C3)nccc2s1` (stereo unspecified) as the compound, how does the RP-LC retention time read?
**A.** The RP-LC retention time was 640 s.

**Q.** For `CN(C)c1ccc(C(=O)N2CCCC2c2nc(-c3ccc(F)cc3)no2)cc1` (stereo unspecified), which RP-LC retention time is on record?
**A.** Its RP-LC retention time is 1020 s.

**Q.** With `CC(O)Cn1cnc2c1c(=O)n(C)c(=O)n2C` (stereo unspecified) as the compound, how does the RP-LC retention time read?
**A.** The RP-LC retention time was 1100 s.

**Q.** For `Cc1ccc(-c2nnc(N3CCC(C(=O)NCCN4CCOCC4)CC3)o2)cc1`, which RP-LC retention time is on record?
**A.** Its RP-LC retention time is 614 s.

**Q.** With `Cc1ccc(-c2noc(-c3nc(Cc4cccc(F)c4)no3)n2)cc1` as the compound, how does the RP-LC retention time read?
**A.** Its RP-LC retention time is 1180 s.

**Q.** For `CCCCN1N=C(C(=O)N2CCOCC2)S(=O)(=O)c2cc(Cl)ccc21`, which RP-LC retention time is on record?
**A.** The RP-LC retention time was 862 s.

**Q.** Which RP-LC retention time does the source give for `Cc1noc(C)c1CN1CC2(CCCCC2)CC1COc1ccncc1` (stereo unspecified) here?
**A.** The RP-LC retention time was 637 s.

**Q.** Which RP-LC retention time does the source give for `Cc1cc(Cl)ccc1S(=O)(=O)N1CCc2c(c(-c3nc(C4CC4)no3)nn2C)C1` here?
**A.** The RP-LC retention time was 1070 s.

**Q.** With `c1cc(-c2noc(-c3ccoc3)n2)cc(N2CCCC2)n1` as the compound, how does the RP-LC retention time read?
**A.** Its RP-LC retention time is 640 s.

**Q.** Which RP-LC retention time does the source give for `O=C(Cc1cccs1)NCC1CCS(=O)(=O)C1` (stereo unspecified) here?
**A.** The RP-LC retention time was 586 s.

**Q.** For `CCOc1ccccc1-c1noc(-c2nnn(Cc3nc(-c4cccc(C)c4)oc3C)c2C)n1`, which RP-LC retention time is on record?
**A.** Its RP-LC retention time is 1260 s.

**Q.** With `O=C(Cn1cnc2c(nnn2Cc2ccc(F)cc2)c1=O)N1CCCc2ccccc21` as the compound, how does the RP-LC retention time read?
**A.** Its RP-LC retention time is 822 s.

**Q.** For `COC(=O)C1=CN(c2ccccc2OC)c2ccccc2S1(=O)=O`, which RP-LC retention time is on record?
**A.** Its RP-LC retention time is 824 s.

**Q.** With `CCCCS(=O)(=O)N1CC(c2noc(-c3cccnc3)n2)C2(CCOCC2)C1` (stereo unspecified) as the compound, how does the RP-LC retention time read?
**A.** Its RP-LC retention time is 788 s.

**Q.** With `Cc1nnc2ccc(-c3noc(-c4ccccc4F)n3)cn12` as the compound, how does the RP-LC retention time read?
**A.** The RP-LC retention time was 770 s.

**Q.** For `Cc1cc(F)ccc1NS(=O)(=O)c1c[nH]c2ncccc12`, which RP-LC retention time is on record?
**A.** The RP-LC retention time was 735 s.

**Q.** Which RP-LC retention time does the source give for `CC(C)NC(=O)N1CCCC(c2cccc(C(=O)NCCCN3CCCCC3)c2)C1` (stereo unspecified) here?
**A.** Its RP-LC retention time is 623 s.

**Q.** Which RP-LC retention time does the source give for `COC(=O)c1cc2n(n1)CC(C)(C(=O)NC1CCCC1)N(c1ccccc1C)C2=O` (stereo unspecified) here?
**A.** The RP-LC retention time was 801 s.

**Q.** With `COC(=O)c1ccc(Cn2cnc3nc4c(cc3c2=O)CCCC4)cc1` as the compound, how does the RP-LC retention time read?
**A.** The RP-LC retention time was 767 s.

**Q.** With `Cc1ccc(-c2csc(Cc3nc(-c4cccc(F)c4)no3)n2)cc1C` as the compound, how does the RP-LC retention time read?
**A.** Its RP-LC retention time is 1360 s.

**Q.** With `CN1CCN(C(=O)c2noc3c2CC(C(C)(C)C)CC3)CC1` (stereo unspecified) as the compound, how does the RP-LC retention time read?
**A.** Its RP-LC retention time is 582 s.

**Q.** Which RP-LC retention time does the source give for `O=C(NCCC1CCN(S(=O)(=O)c2ccc(F)cc2)CC1)Nc1ccccc1` here?
**A.** Its RP-LC retention time is 881 s.

**Q.** With `O=C(c1ccsc1)N1CCC(c2nc(-c3ccc(F)cc3)n[nH]2)CC1` as the compound, how does the RP-LC retention time read?
**A.** Its RP-LC retention time is 726 s.

**Q.** With `Cc1ccc(-c2noc(-c3nnn4c3COC(c3ccc(Cl)cc3)C4)n2)cc1` (stereo unspecified) as the compound, how does the RP-LC retention time read?
**A.** The RP-LC retention time was 1310 s.

**Q.** For `Cc1ccc2nc(-c3ccc(N4CCOCC4)cc3)c(Nc3ccccc3C)n2c1`, which RP-LC retention time is on record?
**A.** The RP-LC retention time was 755 s.

**Q.** With `COc1ccc(CCNC(=O)C2=C3CCCN3c3ccc(F)cc3S2(=O)=O)cc1OC` as the compound, how does the RP-LC retention time read?
**A.** Its RP-LC retention time is 790 s.

**Q.** Which RP-LC retention time does the source give for `CS(=O)(=O)N1CC(F)(F)C[C@H]1c1nc(-c2ccccc2)no1` here?
**A.** The RP-LC retention time was 858 s.

**Q.** For `CN(CC1CCOC1)C(=O)Cc1cccc(Cl)c1` (stereo unspecified), which RP-LC retention time is on record?
**A.** Its RP-LC retention time is 734 s.

**Q.** Which RP-LC retention time does the source give for `CCOc1ccc(-c2ccc(=O)n(CCc3nc(-c4ccc5c(c4)OCO5)no3)n2)cc1` here?
**A.** The RP-LC retention time was 986 s.

**Q.** With `N#Cc1ccc(C(=O)N2CCN3CCS(=O)(=O)N(C4CC4)C(=O)C3C2)cc1` (stereo unspecified) as the compound, how does the RP-LC retention time read?
**A.** The RP-LC retention time was 955 s.

**Q.** Which RP-LC retention time does the source give for `CCN(CC)S(=O)(=O)c1ccc2c(c1)cc(C(=O)NCCCN1CCCC(C)C1)n2C` (stereo unspecified) here?
**A.** The RP-LC retention time was 691 s.

**Q.** With `CCOC(=O)c1ccc(NC(=O)Cn2cccc(-c3nc(-c4ccc(F)cc4)no3)c2=O)cc1` as the compound, how does the RP-LC retention time read?
**A.** Its RP-LC retention time is 922 s.

**Q.** For `CCOC(=O)c1ccc(NC(=O)C2=C(C)C(=O)OC23CCN(C(C)C)CC3)cc1`, which RP-LC retention time is on record?
**A.** Its RP-LC retention time is 657 s.

**Q.** Which RP-LC retention time does the source give for `Cc1ccc2nc3c(C(=O)O)cccn3c(=O)c2c1` here?
**A.** Its RP-LC retention time is 677 s.

**Q.** With `CCc1nc(-c2csc(S(=O)(=O)N3CCCC(C(=O)NCc4cc(C)ccc4C)C3)c2)no1` (stereo unspecified) as the compound, how does the RP-LC retention time read?
**A.** The RP-LC retention time was 1080 s.

**Q.** Which RP-LC retention time does the source give for `COC(=O)c1cnc2nc(C)ccc2c1Nc1ccc(Cl)c(F)c1` here?
**A.** The RP-LC retention time was 713 s.

**Q.** For `CCCC(=O)Nc1ccc2c(c1)C(=O)CC(c1ccc3c(c1)OCO3)O2` (stereo unspecified), which RP-LC retention time is on record?
**A.** Its RP-LC retention time is 808 s.

**Q.** For `Cc1ccc(CNC(=O)CN2C(=O)C3CCCCN3c3ccc(C(=O)N4CCCC4)cc32)o1` (stereo unspecified), which RP-LC retention time is on record?
**A.** The RP-LC retention time was 664 s.

**Q.** For `O=C(NCc1ccc(N2CCOCC2)cc1)c1csc(-c2ccc(N3CCCC3)nc2)n1`, which RP-LC retention time is on record?
**A.** Its RP-LC retention time is 635 s.

**Q.** Which RP-LC retention time does the source give for `O=C(Cc1ccc(Cl)cc1)Nc1nnc(SCc2nnc(-c3ccccc3)o2)s1` here?
**A.** Its RP-LC retention time is 955 s.

**Q.** For `CN1C(=O)c2cc(C(=O)NCCN3CCCCCC3)nn2CC1(C)C(=O)NCc1ccccc1` (stereo unspecified), which RP-LC retention time is on record?
**A.** The RP-LC retention time was 608 s.

**Q.** Which RP-LC retention time does the source give for `CN1c2cc(C(=O)NCc3cc(F)cc(F)c3)ccc2C(=O)N2CCCCC21` (stereo unspecified) here?
**A.** Its RP-LC retention time is 844 s.

**Q.** Which RP-LC retention time does the source give for `O=C(Cn1ccc2c(SCc3ccccc3)nccc21)N1CCN(c2ccccn2)CC1` here?
**A.** The RP-LC retention time was 577 s.

**Q.** For `Cc1cc(C(=O)Nc2c(F)cc(F)cc2Br)n(-c2ccccc2)n1`, which RP-LC retention time is on record?
**A.** The RP-LC retention time was 884 s.

**Q.** For `c1ccc(-c2csc(Nc3ncccn3)n2)cc1`, which RP-LC retention time is on record?
**A.** The RP-LC retention time was 906 s.

**Q.** With `COC(=O)c1ccc(-c2nc3cnccn3c2Nc2ccc(OC)cc2)cc1` as the compound, how does the RP-LC retention time read?
**A.** The RP-LC retention time was 826 s.

**Q.** Which RP-LC retention time does the source give for `CC1=C(c2ccccc2)S(=O)(=O)N=C1N1CCCN(C(=O)c2ccc(C)s2)CC1` here?
**A.** Its RP-LC retention time is 821 s.

**Q.** Which RP-LC retention time does the source give for `CCc1nc2cc(N3CCCC(C(=O)NC(C)C)C3)cnc2nc1CC` (stereo unspecified) here?
**A.** The RP-LC retention time was 747 s.

**Q.** Which RP-LC retention time does the source give for `COc1cc(NC(=O)COc2cc(C(F)(F)F)c3c(C)nn(C)c3n2)cc(OC)c1` here?
**A.** Its RP-LC retention time is 1030 s.

**Q.** Which RP-LC retention time does the source give for `CCS(=O)(=O)N1CC(=O)N(c2cc(C)cc(C)c2)C(C)(C(=O)NC2CCCCCC2)C1` (stereo unspecified) here?
**A.** The RP-LC retention time was 935 s.

**Q.** For `O=c1n(CCOc2ccc(F)cc2)nc2ccc(S(=O)(=O)N3CCCC3)cn12`, which RP-LC retention time is on record?
**A.** The RP-LC retention time was 859 s.

**Q.** Which RP-LC retention time does the source give for `CN(Cc1ccccc1)C(=O)CN1c2ccc(F)cc2-c2ccccc2S1(=O)=O` here?
**A.** The RP-LC retention time was 994 s.

**Q.** Which RP-LC retention time does the source give for `CCN1c2ccc(C)cc2C(=O)NC12CCN(C(=O)c1ccc(C)cc1)CC2` here?
**A.** Its RP-LC retention time is 849 s.

**Q.** Which RP-LC retention time does the source give for `COc1ccc(OC)c(NC(=O)N(C)CCc2noc(COc3ccccc3F)n2)c1` here?
**A.** The RP-LC retention time was 932 s.

**Q.** With `O=C(c1ccccc1Cl)N1CCC(n2cnnc2C2CC2)CC1` as the compound, how does the RP-LC retention time read?
**A.** The RP-LC retention time was 620 s.

**Q.** For `CCn1cc(S(=O)(=O)Nc2ccc(C)cc2F)c2cccnc21`, which RP-LC retention time is on record?
**A.** The RP-LC retention time was 869 s.

**Q.** For `OCC1CN(c2ncccn2)CC12CCN(Cc1ccc(Cl)cc1F)CC2` (stereo unspecified), which RP-LC retention time is on record?
**A.** The RP-LC retention time was 590 s.
